The source of these data is patent publication EP2042492A1, “Novel Iminooxazole and Iminothiazole Compounds” (Bayer CropScience AG, priority 2007, dated 2009).

Data set [1] in a line: LogP via HPLC according to EEC directive 79/831 Annex V.A8 (gradient method, acetonitrile / 0,1 % aqueous formic acid). The class given is physicochemical. Particulars: read-out: lgP (HCOOH). As for the experimental part: Step 2: A stirred mixture of 58 mg (0,24 mmol) of 1-[(1S)-1-(4-fluorophenyl)ethyl]-3-(2-hydroxyethyl)thiourea (preparation step 1) and 27 mg (0,29 mmol) of 1-chloro-propan-2-one in ethanol was refluxed for 18 hours. The solvent was evaporated under reduced pressure and the residue was heated to 70 °C with 25 % aqueous NH4OH solution. This aqueous solution was cooled to ambient temperature and extracted twice with dichloromethane. The organic layer was separated, dried with sodium sulfate and filtered off. The solvent was evaporated under reduced pressure. The residue was purified by chromatography (silica gel; cyclohexane/ethyl acetate = vol. 2:1) to afford 42 mg of 2-[(2E)-2-{[(1S)-1-(4-fluorophenyl)ethyl]imino}-4-methyl-1,3-thiazol-3(2H)-yl]ethanol. Yield: 42 mg (62,3 % of theory). logP (HCOOH) = 0,89 LogP values according EEC directive 79/831 Annex V.A8 via HPLC (gradient method, acetonitrile / 0,1 % aqueous formic acid).

In a further data set the test system is Myzus persicae. Briefly: Myzus persicae - test (MYZUPE spray application). The class given is in vivo. Particulars: application rate of 500g/ha, spray on Chinese cabbage leaf-disks infected with all instars of green peach aphid, 100% = all aphids killed. As for the experimental part:
Myzus persicae - test; (MYZUPE spray application)
Chinese cabbage (Brassica pekinesis) leaf-disks infected with all instars of the green peach aphid (Myzus persicae), are sprayed with a preparation of the active ingredient at the desired concentration.
After the specified period of time, mortality in % is determined. 100% means that all aphids have been killed; 0% means that none of the aphids have been killed.

A further data set deals with Phaedon cochleariae. Put plainly: Phaedon cochleariae - test (PHAECO spray application). The format is in vivo. Particulars: application rate of 500g/ha, sprayed Chinese cabbage leaf-disks infested with mustard beetle larvae, 100 % = all beetle larvae killed. As for the experimental part:
Phaedon cochleariae - test; (PHAECO spray application)
(§1) To produce a suitable preparation of active compound, 1 part by weight of active compound is mixed with the stated amount of solvent and emulsifier, and the concentrate is diluted with emulsifier-containing water to the desired concentration.
Chinese cabbage (Brassica pekinesis) leaf-disks are sprayed with a preparation of the active ingredient of the desired concentration. Once dry, the leaf disks are infested with mustard beetle larvae (Phaedon cochleariae).
After the specified period of time, mortality in % is determined. 100 % means that all beetle larvae have been killed and 0 % means that none of the beetle larvae have been killed.

The subject of the next data set is Tetranychus urticae. Briefly: Tetranychus urticae - test; OP-resistant (TETRUR spray application). The format is in vivo. The settings on record: application rate of 500g/ha, spray on French beans infested with all stages of two spotted spidermite, 100% = all spider mites killed. On the procedure: Tetranychus urticae - test; OP-resistant (TETRUR spray application)
as §1
French beans (Phaseolus vulgaris) which are heavily infested with all stages of the two spotted spidermite (Tetranychus urticae), are sprayed with a preparation of the active ingredient at the desired concentration.
After the specified period of time, mortality in % is determined. 100% means that all spider mites have been killed and 0% means that none of the spider mites have been killed.

As usually defined, the mortality is the share of the test organisms that died. Read a high mortality as fewer survivors. Take `Cc1csc(=N[C@@H](C)c2ccccc2)n1CCO` [Example 2-17]: in data set [1], the chromatographic logP worked out at 0.85. The compound further had a mortality at 500 g/ha in the data set on Myzus persicae not below 80%. For the compound `CCc1csc(=N[C@@H](C)c2ccccc2)n1CCO` [Example 2-18], the chromatographic logP in data set [1] was 0.96. Besides, in the data set on Myzus persicae, the mortality at 500 g/ha was not below 80%.

Turning to `CC(C)c1csc(=N[C@@H](C)c2ccccc2)n1CCO` [Example 2-19], the chromatographic logP in data set [1] was found to be 1.07. Also, the mortality at 500 g/ha in the data set on Myzus persicae is not below 80%.

For the compound `Cc1sc(=N[C@@H](C)c2ccccc2)n(CCO)c1C` [Example 2-21], in data set [1], the chromatographic logP was determined as 1.13. The compound also registered a mortality at 500 g/ha with Myzus persicae not below 80%. Regarding `C[C@H](N=c1scc(C2CC2)n1CCO)c1ccccc1` [Example 2-22], in data set [1], the chromatographic logP was 1.01. Besides, the mortality at 500 g/ha in the data set with Myzus persicae was not below 80%. `C[C@H](N=c1scc(C2CCCC2)n1CCO)c1ccccc1` [Example 2-23]: the chromatographic logP in data set [1] came out at 1.26. In the data set on Myzus persicae, this compound returned a mortality at 500 g/ha not below 80%. With `C[C@H](N=c1scc(-c2ccccc2)n1CCO)c1ccccc1` [Example 2-25], the chromatographic logP in data set [1] is 1.19. The same compound yielded a mortality at 500 g/ha in the data set on Myzus persicae not below 80%.

`C[C@H](N=c1scc(-c2cccnc2)n1CCO)c1ccccc1` [Example 2-27]: the chromatographic logP in data set [1] was 0.85. Moreover, in the data set on Myzus persicae, the mortality at 500 g/ha is not below 80%. With `C[C@H](N=c1scc(C2(Cl)CC2)n1CCO)c1ccccc1` [Example 2-29], the chromatographic logP in data set [1] turned out to be 1.12. In the data set on Myzus persicae, the mortality at 500 g/ha is not below 80%. Turning to `Cc1cs/c(=N/[C@@H](C)c2ccc(F)cc2)n1CCO` [Example 2-152, 2-[(2E)-2-{[(1S)-1-(4-fluorophenyl)ethyl]imino}-4-methyl-1,3-thiazol-3(2H)-yl]ethanol], the chromatographic logP in data set [1] was 0.89. Moreover, the mortality at 500 g/ha in the data set with Myzus persicae is not below 80%. Consider `CCc1csc(=N[C@@H](C)c2ccc(F)cc2)n1CCO` [Example 2-153], for which the chromatographic logP in data set [1] stood at 1. Besides, the mortality at 500 g/ha in the data set on Myzus persicae and with Phaedon cochleariae was not below 80% each time. `CC(C)c1csc(=N[C@@H](C)c2ccc(F)cc2)n1CCO` [Example 2-154]: in data set [1], the chromatographic logP was determined as 1.12. This compound gave a mortality at 500 g/ha in the data set with Myzus persicae not below 80%. Take `C[C@H](N=c1scc(C2CC2)n1CCO)c1ccc(F)cc1` [Example 2-157]: the chromatographic logP in data set [1] came out at 1.03. Besides, the mortality at 500 g/ha in the data set on Myzus persicae is not below 80%. Consider `C[C@H](N=c1scc(C2CCCC2)n1CCO)c1ccc(F)cc1` [Example 2-158], for which the chromatographic logP in data set [1] turned out to be 1.31. This compound also yielded a mortality at 500 g/ha in the data set on Myzus persicae not below 80%.

With `C[C@H](N=c1scc(-c2ccccc2)n1CCO)c1ccc(F)cc1` [Example 2-160], the chromatographic logP in data set [1] came to 1.26. The mortality at 500 g/ha with Myzus persicae was not below 80%. As for `C[C@H](N=c1scc(-c2cccnc2)n1CCO)c1ccc(F)cc1` [Example 2-162], the chromatographic logP in data set [1] was found to be 0.9. This compound returned a mortality at 500 g/ha in the data set on Myzus persicae not below 80%. For `C[C@H](N=c1scc(C2(Cl)CC2)n1CCO)c1ccc(F)cc1` [Example 2-164], in that order: 1.14 and not below 80%. Consider `COc1ccc([C@H](C)N=c2scc(C)n2CCO)cc1` [Example 2-272], for which the chromatographic logP in data set [1] is 0.89. With `CCc1csc(=N[C@@H](C)c2ccc(OC)cc2)n1CCO` [Example 2-273], in data set [1], the chromatographic logP was 1. For `COc1ccc([C@H](C)N=c2scc(C(C)C)n2CCO)cc1` [Example 2-274], the chromatographic logP in data set [1] came to 1.09. On to `COc1ccc([C@H](C)N=c2scc(C3CC3)n2CCO)cc1` [Example 2-277], for which the chromatographic logP in data set [1] is 1.05. On the same count and under the same terms, with `COc1ccc([C@H](C)N=c2scc(C3CCCC3)n2CCO)cc1` [Example 2-278] the figure was 1.33; with `COc1ccc([C@H](C)N=c2scc(-c3ccccc3)n2CCO)cc1` [Example 2-280], 1.26; with `COc1ccc([C@H](C)N=c2scc(-c3cccnc3)n2CCO)cc1` [Example 2-282], 0.9. For the compound `COc1ccc([C@H](C)N=c2scc(C3(Cl)CC3)n2CCO)cc1` [Example 2-284], the chromatographic logP in data set [1] worked out at 1.14.

On to `Cc1csc(=N[C@@H](C)c2ccc(Cl)cc2)n1CCO` [Example 2-287], for which the mortality at 500 g/ha in the data set on Tetranychus urticae and in the data set with Myzus persicae was not below 80% each time. In addition, the chromatographic logP in data set [1] stood at 1.03.

As for `CCc1csc(=N[C@@H](C)c2ccc(Cl)cc2)n1CCO` [Example 2-288], the mortality at 500 g/ha in the data set with Tetranychus urticae and with Myzus persicae was not below 80% each time. Also, the chromatographic logP in data set [1] is 1.14.

Consider `CC(C)c1csc(=N[C@@H](C)c2ccc(Cl)cc2)n1CCO` [Example 2-289], for which the chromatographic logP in data set [1] was 1.28. Further, in the data set with Myzus persicae, the mortality at 500 g/ha is not below 80%. Taken in the same sequence, the figures for `C[C@H](N=c1scc(C2CCCC2)n1CCO)c1ccc(Cl)cc1` [Example 2-293] were 1.42 and not below 80%.

In the case of `C[C@H](N=c1scc(-c2ccccc2)n1CCO)c1ccc(Cl)cc1` [Example 2-295], the chromatographic logP in data set [1] is 1.38. In the data set with Myzus persicae, this compound gave a mortality at 500 g/ha not below 80%. As for `C[C@H](N=c1scc(-c2cccnc2)n1CCO)c1ccc(Cl)cc1` [Example 2-297], in data set [1], the chromatographic logP worked out at 1.03. The same compound registered a mortality at 500 g/ha in the data set on Myzus persicae not below 80%. Take `C[C@H](N=c1scc(C2(Cl)CC2)n1CCO)c1ccc(Cl)cc1` [Example 2-299]: in data set [1], the chromatographic logP worked out at 1.33. The compound also yielded a mortality at 500 g/ha with Myzus persicae not below 80%. Regarding `CC[C@H](N=c1scc(C)n1CCO)c1ccccc1` [Example 2-362], in data set [1], the chromatographic logP came to 0.98. Moreover, the mortality at 500 g/ha in the data set on Myzus persicae was not below 80%. For the compound `CCc1csc(=N[C@@H](CC)c2ccccc2)n1CCO` [Example 2-363], the chromatographic logP in data set [1] is 1.09. In addition, the mortality at 500 g/ha in the data set on Myzus persicae is not below 80%. Consider `CC[C@H](N=c1scc(C(C)C)n1CCO)c1ccccc1` [Example 2-364], for which the chromatographic logP in data set [1] amounted to 1.19. The same compound showed a mortality at 500 g/ha in the data set on Myzus persicae not below 80%. Take `CC[C@H](N=c1scc(C2CC2)n1CCO)c1ccccc1` [Example 2-367]: the chromatographic logP in data set [1] was found to be 1.14. The same compound returned a mortality at 500 g/ha with Myzus persicae not below 80%. For `CC[C@H](N=c1scc(C2CCCC2)n1CCO)c1ccccc1` [Example 2-368], in that order: 1.4 and not below 80%.

With `CC[C@H](N=c1scc(-c2ccccc2)n1CCO)c1ccccc1` [Example 2-370], the chromatographic logP in data set [1] worked out at 1.33. Moreover, the mortality at 500 g/ha in the data set on Myzus persicae is not below 80%. As to `CC[C@H](N=c1scc(-c2cccnc2)n1CCO)c1ccccc1` [Example 2-372], the chromatographic logP in data set [1] was found to be 1. In addition, in the data set with Myzus persicae, the mortality at 500 g/ha is not below 80%.

Take `CC[C@H](N=c1scc(C2(Cl)CC2)n1CCO)c1ccccc1` [Example 2-374]: the chromatographic logP in data set [1] turned out to be 1.19. The same compound displayed a mortality at 500 g/ha with Myzus persicae not below 80%.
